Laboratory results: article PMC6269910 (Molecules, 2013)

Columns and labels:
[1] = tested on: superoxide dismutase (SOD); test: SOD activity in liver, kidney, colon, brain; format: in vivo, mice; settings: 72 h
Description: SOD is a major antioxidant enzyme found in cells, which protect cells from oxidative stress. SOD activity in the tissue samples was measured according to the previously described method.

myeloperoxidase (MPO) = test: MPO activity in liver, kidney, colon, brain; format: in vivo, mice; settings: 72 h
Description: MPO is an enzyme that is found predominantly in the azurophilic granules of polymorphonuclear leukocytes (PMN). […] MPO activity was measured in tissues in a procedure similar to that documented by […] et al.

Q: Which SOD ([1]; brain, 100 mg/kg oral) does the source give for `CCNC(=S)NS(=O)(=O)c1ccc(-n2nc(C(F)(F)F)cc2-c2ccc(C)cc2)cc1` [Compound 1a, N-(Ethylcarbamothioyl)-4-[5-(4-methylphenyl)-3-(trifluoromethyl)-1H-pyrazol-1-yl] benzenesulfonamide] here?
A: The SOD was 19.17 ± 7.41 U/g tissue.

Q: And the SOD ([1]; brain, 200 mg/kg oral)?
A: Its SOD is 19.22 ± 10.76 U/g tissue.

Q: What about the SOD ([1]; colon, 100 mg/kg oral) of the same compound?
A: Its SOD is 16.56 ± 4.13 U/g tissue.

Q: And the SOD ([1]; colon, 200 mg/kg oral)?
A: The SOD was 21.17 ± 4.15 U/g tissue.

Q: What about the SOD ([1]; kidney, 100 mg/kg oral) of the same compound?
A: Its SOD is 20.26 ± 8.71 U/g tissue.

Q: What about the SOD ([1]; kidney, 200 mg/kg oral) of the same compound?
A: Its SOD is 15.37 ± 7.33 U/g tissue.

Q: And the SOD ([1]; liver, 100 mg/kg oral)?
A: The SOD was 21.15 ± 9.98 U/g tissue.

Q: What about the SOD ([1]; liver, 200 mg/kg oral) of the same compound?
A: Its SOD is 11.72 ± 5.10 U/g tissue.

Q: What about the MPO (myeloperoxidase (MPO); brain, 100 mg/kg oral) of the same compound?
A: The MPO was 0.73 ± 0.32 U/gtissue.

Q: And the MPO (myeloperoxidase (MPO); brain, 200 mg/kg oral)?
A: The MPO was 1.95 ± 0.60 U/gtissue.

Q: And the MPO (myeloperoxidase (MPO); colon, 100 mg/kg oral)?
A: Its MPO is 0.27 ± 0.13 U/gtissue.

Q: What about the MPO (myeloperoxidase (MPO); colon, 200 mg/kg oral) of the same compound?
A: Its MPO is 0.38 ± 0.14 U/gtissue.

Q: And the MPO (myeloperoxidase (MPO); kidney, 100 mg/kg oral)?
A: The MPO was 3.18 ± 2.66 U/g tissue.

Q: And the MPO (myeloperoxidase (MPO); kidney, 200 mg/kg oral)?
A: Its MPO is 4.59 ± 1.01 U/g tissue.

Q: What about the MPO (myeloperoxidase (MPO); liver, 100 mg/kg oral) of the same compound?
A: The MPO was 0.50 ± 0.28 U/gtissue.

Q: And the MPO (myeloperoxidase (MPO); liver, 200 mg/kg oral)?
A: The MPO was 0.15 ± 0.08 U/gtissue.
